Measured values as given in publication PMC4467913 (Phytochemistry letters, 2015).

Key:
elastase = experiment: Protease inhibition assay, elastase; format: biochemical; conditions: highest concentration tested 13 µM
HT-29 cancer cell line = experiment: Cytotoxicity assay, HT-29; format: cell-based, human; conditions: highest concentration tested 33 µM
trypsin = experiment: Protease inhibition assay, trypsin; format: biochemical; conditions: highest concentration tested 13 µM
Mycobacterium smegmatis = experiment: Growth inhibition assay, M. smegmatis; format: cell-based; conditions: highest concentration tested 50 µg/mL
[1] = test system: MDA-MB-435 cancer cell line; experiment: Cytotoxicity assay, MDA-MB-435; format: cell-based, human; conditions: highest concentration tested 33 µM
Staphylococcus aureus = experiment: Growth inhibition assay, S. aureus; format: cell-based; conditions: highest concentration tested 50 µg/mL
Escherichia coli = experiment: Growth inhibition assay, E. coli; format: cell-based; conditions: highest concentration tested 50 µg/mL
Candida albicans = experiment: Growth inhibition assay, C. albicans; format: cell-based; conditions: highest concentration tested 50 µg/mL
chymotrypsin = experiment: Protease inhibition assay, chymotrypsin; format: biochemical; conditions: highest concentration tested 13 µM
[2] = test system: Mycobacterium tuberculosis; conditions: highest concentration tested 50 µg/mL

cyclo[L-Val2-L-Ser-L-Ile-L-Asn-L-Val1-L-Phe-L-Pro-] [Microseiramide (1)]
no activity was observed: protease inhibition (elastase) | cytotoxicity (HT-29 cancer cell line) | protease inhibition (trypsin) | growth inhibition (Mycobacterium smegmatis) | cytotoxicity [1] | growth inhibition (Staphylococcus aureus) | growth inhibition (Escherichia coli) | growth inhibition (Candida albicans) | protease inhibition (chymotrypsin) | growth inhibition [2]
